Patent publication US8404708B2, “Dual NK1/NK3 receptor antagonists” (Hoffmann-La Roche Inc., priority 2004, dated 2013)

How the values were obtained:
human NK1 receptor = human NK1 receptor (Homo sapiens, UniProt P25103); test: NK1 receptor binding, [3H]substance P displacement, CHO cell membranes; settings: first value of the cell pKi NK1/NK3; human NK1 receptor, [3H]substance P
[1] = target: T1, Recombinant human NK3 (hNK3) receptor (Homo sapiens, UniProt P29371); test: NK3 receptor binding, [3H]SR142801 displacement, membrane preparations; settings: second value of the cell pKi NK1/NK3; hNK3 receptor, [3H]SR142801
T1 construct: expressed in transfected cells
T1 sequence (P29371 1-465): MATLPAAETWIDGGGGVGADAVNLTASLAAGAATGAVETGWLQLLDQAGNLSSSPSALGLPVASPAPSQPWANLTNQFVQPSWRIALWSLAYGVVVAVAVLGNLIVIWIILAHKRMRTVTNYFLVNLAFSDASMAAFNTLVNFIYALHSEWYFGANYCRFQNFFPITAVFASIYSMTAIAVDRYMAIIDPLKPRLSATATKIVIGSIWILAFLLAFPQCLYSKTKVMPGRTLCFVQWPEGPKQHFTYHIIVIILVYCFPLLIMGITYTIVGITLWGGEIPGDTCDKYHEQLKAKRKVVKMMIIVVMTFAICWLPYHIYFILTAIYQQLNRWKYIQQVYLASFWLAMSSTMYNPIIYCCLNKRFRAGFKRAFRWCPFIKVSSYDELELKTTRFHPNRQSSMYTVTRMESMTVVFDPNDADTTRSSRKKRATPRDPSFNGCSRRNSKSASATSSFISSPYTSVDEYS
Procedure, shortened: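 Buffer: Tris-HCl 50 mM pH 7.4, BSA 0.1%, MnCl2 4 mM, phosphoramidon 1 μM. ~2.5 μg membrane/well, 90 min RT. NSB with SB222200 (10 μM). Vacuum filtration over 0.3% PEI-treated GF/C, cold Tris/BSA washes, scintillation count; duplicates, ≥2 experiments.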

human NK1 receptor, sequence (P25103 whole entry): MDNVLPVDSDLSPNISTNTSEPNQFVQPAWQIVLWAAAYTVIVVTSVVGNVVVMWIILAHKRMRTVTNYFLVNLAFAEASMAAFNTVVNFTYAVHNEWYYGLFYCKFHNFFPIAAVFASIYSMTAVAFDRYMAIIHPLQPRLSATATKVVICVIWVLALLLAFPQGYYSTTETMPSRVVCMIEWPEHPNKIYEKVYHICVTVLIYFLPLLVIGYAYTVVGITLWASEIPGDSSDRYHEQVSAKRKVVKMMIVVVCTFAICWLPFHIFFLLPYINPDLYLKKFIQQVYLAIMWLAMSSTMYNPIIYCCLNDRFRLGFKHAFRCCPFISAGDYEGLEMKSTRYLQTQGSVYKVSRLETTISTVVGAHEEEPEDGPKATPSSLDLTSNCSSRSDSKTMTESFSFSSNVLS

SMILES	Ki (human NK1 receptor) [nM]	Ki [1] [nM]
C[C@H](O)CNc1cc(-c2ccccc2Cl)c(N(C)C(=O)C(C)(C)c2cc(C(F)(F)F)cc(C(F)(F)F)c2)cn1 [Example 72, (S)-2-(3,5-Bis-trifluoromethyl-phenyl)-N-[4-(2-chloro-phenyl)-6-(2-hydroxy-propylamino)-pyridin-3-yl]-N-methyl-isobutyramide]	0.724	26.3
C[C@@H](O)CNc1cc(-c2ccccc2Cl)c(N(C)C(=O)C(C)(C)c2cc(C(F)(F)F)cc(C(F)(F)F)c2)cn1 [Example 73, (R)-2-(3,5-Bis-trifluoromethyl-phenyl)-N-[4-(2-chloro-phenyl)-6-(2-hydroxy-propylamino)-pyridin-3-yl]-N-methyl-isobutyramide]	0.871	7.41
CN(C(=O)C(C)(C)c1cc(C(F)(F)F)cc(C(F)(F)F)c1)c1cnc(NCC(C)(C)O)cc1-c1ccccc1Cl [Example 75, 2-(3,5-Bis-trifluoromethyl-phenyl)-N-[4-(2-chloro-phenyl)-6-(2-hydroxy-2-methyl-propylamino)-pyridin-3-yl]-N-methyl-isobutyramide]	1.7	12.3
CCC(O)CNc1cc(-c2ccccc2Cl)c(N(C)C(=O)C(C)(C)c2cc(C(F)(F)F)cc(C(F)(F)F)c2)cn1 (stereo not shown) [Example 76, 2-(3,5-Bis-trifluoromethyl-phenyl)-N-[4-(2-chloro-phenyl)-6-(2-hydroxy-butylamino)-pyridin-3-yl]-N-methyl-isobutyramide]	1.58	10.7
Cc1cc(F)ccc1-c1cc(NC[C@H](C)O)ncc1N(C)C(=O)C(C)(C)c1cc(C(F)(F)F)cc(C(F)(F)F)c1 [Example 77, (S)-2-(3,5-Bis-trifluoromethyl-phenyl)-N-[4-(4-fluoro-2-methyl-phenyl)-6-(2-hydroxy-propylamino)-pyridin-3-yl]-N-methyl-isobutyramide]	0.646	4.79
C[C@@H](CO)Nc1cc(-c2ccccc2Cl)c(N(C)C(=O)C(C)(C)c2cc(C(F)(F)F)cc(C(F)(F)F)c2)cn1 [Example 79, (S)-2-(3,5-Bis-trifluoromethyl-phenyl)-N-[4-(2-chloro-phenyl)-6-(2-hydroxy-1-methyl-ethylamino)-pyridin-3-yl]-N-methyl-isobutyramide]	1.35	10.5
C[C@H](CO)Nc1cc(-c2ccccc2Cl)c(N(C)C(=O)C(C)(C)c2cc(C(F)(F)F)cc(C(F)(F)F)c2)cn1 [Example 80, (R)-2-(3,5-Bis-trifluoromethyl-phenyl)-N-[4-(2-chloro-phenyl)-6-(2-hydroxy-1-methyl-ethylamino)-pyridin-3-yl]-N-methyl-isobutyramide]	1.26	8.91
CN(C(=O)C(C)(C)c1cc(C(F)(F)F)cc(C(F)(F)F)c1)c1cnc(NC(CO)CO)cc1-c1ccccc1Cl [Example 81, 2-(3,5-Bis-trifluoromethyl-phenyl)-N-[4-(2-chloro-phenyl)-6-(2-hydroxy-1-hydroxymethyl-ethylamino)-pyridin-3-yl]-N-methyl-isobutyramide]	2.09	5.62
CN(C(=O)C(C)(C)c1cc(C(F)(F)F)cc(C(F)(F)F)c1)c1cnc(N(CCO)CCO)cc1-c1ccccc1Cl [Example 82, N-[6-[Bis-(2-hydroxy-ethyl)-amino]-4-(2-chloro-phenyl)-pyridin-3-yl]-2-(3,5-bis-trifluoromethyl-phenyl)-N-methyl-isobutyramide]	0.933	0.813
Cc1ccccc1-c1cc(N(CCO)CCO)ncc1N(C)C(=O)C(C)(C)c1cc(C(F)(F)F)cc(C(F)(F)F)c1 [Example 83, N-{6-[Bis-(2-hydroxy-ethyl)-amino]-4-o-tolyl-pyridin-3-yl}-2-(3,5-bis-trifluoromethyl-phenyl)-N-methyl-isobutyramide]	1.17	1.1
Cc1cc(F)ccc1-c1cc(N(CCO)CCO)ncc1N(C)C(=O)C(C)(C)c1cc(C(F)(F)F)cc(C(F)(F)F)c1 [Example 84, N-[6-[Bis-(2-hydroxy-ethyl)-amino]-4-(4-fluoro-2-methyl-phenyl)-pyridin-3-yl]-2-(3,5-bis-trifluoromethyl-phenyl)-N-methyl-isobutyramide]	3.39	1.74
Cc1cc(F)ccc1-c1cc(N(CCO)CCCO)ncc1N(C)C(=O)C(C)(C)c1cc(C(F)(F)F)cc(C(F)(F)F)c1 [Example 85, 2-(3,5-Bis-trifluoromethyl-phenyl)-N-{4-(4-fluoro-2-methyl-phenyl)-6-[(2-hydroxy-ethyl)-(3-hydroxy-propyl)-amino]-pyridin-3-yl}-N-methyl-isobutyramide]	2.34	2.29
CN(C(=O)C(C)(C)c1cc(C(F)(F)F)cc(C(F)(F)F)c1)c1cnc(N(CCO)CCO)cc1-c1ccc(Cl)cc1Cl [Example 86, N-[6-[Bis-(2-hydroxy-ethyl)-amino]-4-(2,4-dichloro-phenyl)-pyridin-3-yl]-2-(3,5-bis-trifluoromethyl-phenyl)-N-methyl-isobutyramide]	1.66	3.55
CN(C(=O)C(C)(C)c1cc(C(F)(F)F)cc(C(F)(F)F)c1)c1cnc(N(CCO)CCO)cc1-c1ccc(Cl)c(Cl)c1 [Example 87, N-[6-[Bis-(2-hydroxy-ethyl)-amino]-4-(3,4-dichloro-phenyl)-pyridin-3-yl]-2-(3,5-bis-trifluoromethyl-phenyl)-N-methyl-isobutyramide]	1.58	9.55
CN(C(=O)C(C)(C)c1cc(C(F)(F)F)cc(C(F)(F)F)c1)c1cnc(N(CCO)CCO)cc1-c1ccc(F)cc1 [Example 88, N-[6-[Bis-(2-hydroxy-ethyl)-amino]-4-(4-fluoro-phenyl)-pyridin-3-yl]-2-(3,5-bis-trifluoromethyl-phenyl)-N-methyl-isobutyramide]	1.35	9.33
CN(C(=O)C(C)(C)c1cc(C(F)(F)F)cc(C(F)(F)F)c1)c1cnc(NCCS(C)(=O)=O)cc1-c1ccccc1Cl [Example 89, 2-(3,5-Bis-trifluoromethyl-phenyl)-N-[4-(2-chloro-phenyl)-6-(2-methanesulfonyl-ethylamino)-pyridin-3-yl]-N-methyl-isobutyramide]	0.49	3.24
CC(=O)NCCNc1cc(-c2ccccc2Cl)c(N(C)C(=O)C(C)(C)c2cc(C(F)(F)F)cc(C(F)(F)F)c2)cn1 [Example 90, N-[6-(2-Acetylamino-ethylamino)-4-(2-chloro-phenyl)-pyridin-3-yl]-2-(3,5-bis-trifluoromethyl-phenyl)-N-methyl-isobutyramide]	1.78	6.03
CN(C(=O)C(C)(C)c1cc(C(F)(F)F)cc(C(F)(F)F)c1)c1cnc(N[C@H]2CC[C@H](O)CC2)cc1-c1ccc(Cl)cc1Cl [Example 91, trans-2-(3,5-Bis-trifluoromethyl-phenyl)-N-[4-(2,4-dichloro-phenyl)-6-(4-hydroxy-cyclohexylamino)-pyridin-3-yl]-N-methyl-isobutyramide]	2.45	5.62
Cc1cc(F)ccc1-c1cc(N[C@H]2CC[C@H](O)CC2)ncc1N(C)C(=O)C(C)(C)c1cc(C(F)(F)F)cc(C(F)(F)F)c1 [Example 92, trans-2-(3,5-Bis-trifluoromethyl-phenyl)-N-[4-(4-fluoro-2-methyl-phenyl)-6-(4-hydroxy-cyclohexylamino)-pyridin-3-yl]-N-methyl-isobutyramide]	1.02	21.4
Cc1cc(F)ccc1-c1cc(N2CCC[C@@H]2CO)ncc1N(C)C(=O)C(C)(C)c1cc(C(F)(F)F)cc(C(F)(F)F)c1 [Example 93, (R)-2-(3,5-Bis-trifluoromethyl-phenyl)-N-[4-(4-fluoro-2-methyl-phenyl)-6-(2-hydroxymethyl-pyrrolidin-1-yl)-pyridin-3-yl]-N-methyl-isobutyramide]	1.12	7.41
CN(C(=O)C(C)(C)c1cc(C(F)(F)F)cc(C(F)(F)F)c1)c1cnc(N2CCC[C@@H]2CO)cc1-c1ccc(Cl)cc1Cl [Example 94, (R)-2-(3,5-Bis-trifluoromethyl-phenyl)-N-[4-(2,4-dichloro-phenyl)-6-(2-hydroxymethyl-pyrrolidin-1-yl)-pyridin-3-yl]-N-methyl-isobutyramide]	4.27	14.8
CN(C(=O)C(C)(C)c1cc(C(F)(F)F)cc(C(F)(F)F)c1)c1cnc(N2CCC[C@@H]2CO)cc1-c1ccc(Cl)c(Cl)c1 [Example 95, (R)-2-(3,5-Bis-trifluoromethyl-phenyl)-N-[4-(3,4-dichloro-phenyl)-6-(2-hydroxymethyl-pyrrolidin-1-yl)-pyridin-3-yl]-N-methyl-isobutyramide]	3.8	9.33
CN(C(=O)C(C)(C)c1cc(C(F)(F)F)cc(C(F)(F)F)c1)c1cnc(N2CC(O)C2)cc1-c1ccccc1Cl [Example 98, 2-(3,5-Bis-trifluoromethyl-phenyl)-N-[4-(2-chloro-phenyl)-6-(3-hydroxy-azetidin-1-yl)-pyridin-3-yl]-N-methyl-isobutyramide]	0.692	3.47
